These are literature values, as cited in patent publication US20030187074A1, “Oral compositions for treatment of diabetes” (priority 2002, published 2003).

The conditions of the series: Physician's Desk Reference, 2001, page 2980.

Turning to `CN(CCOc1ccc(CC2SC(=O)NC2=O)cc1)c1ccccn1` (stereo not shown) [rosiglitazone], the “half-life of elimination from the human body” value was 3 to 4 h.
